Results reported in patent publication US11046722B2, “Sulphated disaccharides for the treatment of neuropathic pain” (BIOIBERICA, S.A.U., priority 2017, dated 2021).

Tests used:
[1] = test system: allodynia induced in mice by injecting paclitaxel; assay: Neuropathic pain induced by chemotherapy (paclitaxel): reversal by a single dose after induction; assay type: in vivo; conditions: paclitaxel 2 mg/Kg i.p. for 5 days, day 10, single oral dose, increasing doses 7.5, 15 and 30 mg/Kg, 45 minutes after administration
Procedure: (§1) In Example 3 an experimental model is used in mice based on inducing allodynia by intraperitoneal injection of paclitaxel, as described in the articles by Smith et al., Paclitaxel-induced neuropathic hypersensitivity in mice: responses in 10 inbred mouse strains, Life Sci., 2014, 2593-2604 and Palomano et al., Chemotherapy-evoked painful peripheral neuropathy, Pain Med., 2001, 2 (1), 8-14. In alternative trials, compound Ic was administered after allodynia induction by paclitaxel, or it was administered jointly with this chemotherapy medication. It is observed that compound Ic is effective at both reversing the allodynia induced by paclitaxel (FIG. 4), and preventing the development thereof when coadministered with paclitaxel (FIG. 5).
In this test, groups of mice between 7 and 12 animals were used, to which a daily dose of paclitaxel of 2 mg/Kg was administered by intraperitoneal route for 5 consecutive days (except for the control group). The evaluation of the induced mechanical allodynia was carried out on the 10th day after the first paclitaxel injection, and was quantified by using the von Frey filaments, according to the force threshold necessary to cause the paw withdrawal of the animal. […]

[2] = test system: mechanical allodynia due to diabetes induced by injecting streptozotocin; assay: Diabetic allodynia induced by streptozotocin injection (von Frey, 50% pain threshold); assay type: in vivo, mice; conditions: streptozotocin 60 mg/Kg i.p. for five days, day 25, 45 minutes after administration
Text: In Example 5 an experimental trial is described of mechanical allodynia in diabetic mice induced by intraperitoneal streptozotocin injection, based on the model described in the article by Courteix et al., Streptozotocin-induced diabetic rats: behavioural evidence for a model of chronic pain, Pain, 1993, 81-88. This model is based on causing a mechanical allodynia in mice by inducing diabetes by means of intraperitoneal streptozotocin injection. It is observed that the administration of different doses of compound Ic is effective in reversing the allodynia induced by diabetes, as quantified by the statistically significant increase observed in the treated animals, of the threshold force that is necessary to apply in order to produce paw withdrawal in the animals (FIG. 7). […] For the evaluation of the effect of the Ic compound on the allodynia induced in this manner by diabetes, five groups of animals were used with at least 7 animals in each group, and the allodynia was quantified using von Frey filaments, according to the force threshold necessary to cause the animal's paw's withdrawal. Compound Ic was administered orally to the animals by gavage, in a single administration and allodynia was measured in each animal immediately before the administration and 45 minutes after the administration. […]

[3] = test system: allodynia induced in mice by injecting paclitaxel; assay: Neuropathic pain induced by chemotherapy (paclitaxel): prevention by coadministration with paclitaxel; assay type: in vivo; conditions: 30 mg/Kg orally daily for 5 consecutive days coadministered with paclitaxel, evaluated on the 10th day
Procedure: as §1, with “It is observed that compound Ic is effective at both reversing the allodynia induced by paclitaxel (FIG. 4), and preventing the development thereof when coadministered with paclitaxel (FIG. 5).” left out
In this test, groups of mice between 7 and 12 animals were used, to which a daily dose of paclitaxel of 2 mg/Kg was administered by intraperitoneal route for 5 consecutive days (except for the control group). The evaluation of the induced mechanical allodynia was carried out on the 10th day after the first paclitaxel injection, and was quantified by using the von Frey filaments, according to the force threshold necessary to cause the paw withdrawal of the animal.
A second trial was carried out using this same model, according to which a daily dose of compound Ic was administered orally, for 5 consecutive days, coadministered with paclitaxel. The allodynia was evaluated the 10th day after the beginning of the treatment. […]

In the case of `CO[C@H]1O[C@H](COS(=O)(=O)[O-])[C@@H](OS(=O)(=O)[O-])[C@H](O[C@@H]2O[C@H](C(=O)[O-])[C@@H](O)[C@H](O)[C@H]2O)[C@H]1NC(C)=O.[Na+].[Na+].[Na+]` [Compound Ic, methyl 2-acetamido-2-desoxi-3-O-(β-D-glucopyranosyluronic acid)-4,6-di-O-sulfo-α-D-glucopyranoside trisodium salt], the “reversal of paclitaxel-induced allodynia” value [1] is reported as “reversed the paclitaxel-induced allodynia”, the “reversal of the allodynia induced by diabetes” value ([2]; 10 mg/kg single oral dose by gavage) is reported as “effective at reversing the allodynia” and the “reversal of the allodynia induced by diabetes” value ([2]; 30 mg/kg single oral dose by gavage, differences statistically significant) is reported as “effective at reversing the allodynia”. For the same compound, the “prevention of the development of allodynia” value [3] was “prevented the development of allodynia”.
